Results as given in patent publication US10710978B2, “STK4 inhibitors for treatment of hematologic malignancies” (Dana-Farber Cancer Institute, Inc., priority 2015, dated 2020).
Like-named read-outs stand apart in the source and are kept apart here.

How the values were obtained:
Experiment in all cases: KiNativ assay
Type in all cases: binding
Settings in all cases: H929 live cell
ABL, ARG = tested on: ABL, ARG
Protocol: (§1) Biochemical IC50s of the compounds of the present disclosure against various kinases were measured in a KiNativ assay. Compounds were screened in duplicate at 10 μM in H929 live cell. IC50 was measured via Mass spectroscopy (MS).

BRAF = BRAF (Homo sapiens (Human), UniProt P15056)
Protocol: as §1

CDK2 = CDK2 (Homo sapiens (Human), UniProt P24941)
Protocol: as §1

CHK2 = CHK2 (Homo sapiens (Human), UniProt O96017)
Protocol: as §1

CaMK1d = CaMK1d (Homo sapiens (Human), UniProt Q8IU85)
Sequence of CaMK1d (Q8IU85 whole entry): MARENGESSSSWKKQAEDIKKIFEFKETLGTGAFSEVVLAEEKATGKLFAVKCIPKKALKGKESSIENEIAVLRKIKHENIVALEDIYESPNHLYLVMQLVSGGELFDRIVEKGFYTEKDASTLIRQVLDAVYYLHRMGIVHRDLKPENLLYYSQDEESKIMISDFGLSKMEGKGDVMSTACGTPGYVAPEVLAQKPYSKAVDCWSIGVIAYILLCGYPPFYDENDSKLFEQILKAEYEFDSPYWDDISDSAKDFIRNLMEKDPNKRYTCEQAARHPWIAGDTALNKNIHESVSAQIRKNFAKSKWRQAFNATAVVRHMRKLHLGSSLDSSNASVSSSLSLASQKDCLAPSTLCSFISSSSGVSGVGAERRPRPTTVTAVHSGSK
Protocol: as §1

[1] = tested on: CaMK2a, CaMK2b, CaMK2d, CaMK2g
Protocol: as §1

CaMK2g = CaMK2g (Homo sapiens (Human), UniProt Q13555)
Sequence of CaMK2g (Q13555 whole entry): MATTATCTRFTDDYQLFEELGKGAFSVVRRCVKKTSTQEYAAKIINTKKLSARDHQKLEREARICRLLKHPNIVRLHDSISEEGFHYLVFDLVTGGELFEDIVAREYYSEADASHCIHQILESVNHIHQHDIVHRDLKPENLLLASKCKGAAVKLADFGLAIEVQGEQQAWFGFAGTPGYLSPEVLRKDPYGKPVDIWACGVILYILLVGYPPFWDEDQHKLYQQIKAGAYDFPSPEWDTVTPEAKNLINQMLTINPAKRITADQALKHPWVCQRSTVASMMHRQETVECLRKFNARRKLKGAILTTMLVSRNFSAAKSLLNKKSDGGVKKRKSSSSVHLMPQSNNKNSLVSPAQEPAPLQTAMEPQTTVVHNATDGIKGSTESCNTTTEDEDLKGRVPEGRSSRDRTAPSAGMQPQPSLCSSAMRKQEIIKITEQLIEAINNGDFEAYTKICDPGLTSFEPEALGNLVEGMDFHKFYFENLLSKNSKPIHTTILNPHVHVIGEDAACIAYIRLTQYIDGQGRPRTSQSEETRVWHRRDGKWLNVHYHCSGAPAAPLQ
Protocol: as §1

IKKb = IKKb (Homo sapiens (Human), UniProt O14920)
Protocol: as §1

ILK = ILK (Homo sapiens (Human), UniProt Q13418)
Sequence of ILK (Q13418 whole entry): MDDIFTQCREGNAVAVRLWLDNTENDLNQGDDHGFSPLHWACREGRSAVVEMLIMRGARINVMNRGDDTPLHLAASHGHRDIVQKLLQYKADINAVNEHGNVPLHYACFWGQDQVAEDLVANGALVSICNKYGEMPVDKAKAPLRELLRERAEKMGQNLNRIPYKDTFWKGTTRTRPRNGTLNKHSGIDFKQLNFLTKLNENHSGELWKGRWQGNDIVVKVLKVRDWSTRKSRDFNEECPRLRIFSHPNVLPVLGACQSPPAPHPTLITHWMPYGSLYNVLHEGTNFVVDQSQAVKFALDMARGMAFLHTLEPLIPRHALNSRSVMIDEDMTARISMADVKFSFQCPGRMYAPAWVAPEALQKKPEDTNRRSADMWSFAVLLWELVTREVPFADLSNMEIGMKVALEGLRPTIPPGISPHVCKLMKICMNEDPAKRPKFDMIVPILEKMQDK
Protocol: as §1

IRAK4 = IRAK4 (Homo sapiens (Human), UniProt Q9NWZ3)
Sequence of IRAK4 (Q9NWZ3 whole entry): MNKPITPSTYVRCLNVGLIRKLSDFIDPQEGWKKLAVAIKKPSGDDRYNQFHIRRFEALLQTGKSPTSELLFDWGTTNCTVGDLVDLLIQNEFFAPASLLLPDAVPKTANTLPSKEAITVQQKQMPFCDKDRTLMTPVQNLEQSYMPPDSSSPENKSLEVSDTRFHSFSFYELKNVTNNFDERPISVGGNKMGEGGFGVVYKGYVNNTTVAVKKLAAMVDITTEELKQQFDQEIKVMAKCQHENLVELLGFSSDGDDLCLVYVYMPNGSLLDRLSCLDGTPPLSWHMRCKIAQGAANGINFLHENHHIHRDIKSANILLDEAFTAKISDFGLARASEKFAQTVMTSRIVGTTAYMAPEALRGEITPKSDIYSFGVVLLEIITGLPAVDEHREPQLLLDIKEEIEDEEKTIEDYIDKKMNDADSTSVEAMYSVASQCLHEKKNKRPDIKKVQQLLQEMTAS
Protocol: as §1

IRE1 = IRE1 (Homo sapiens (Human), UniProt O75460)
Protocol: as §1

JAK1 domain1 = JAK1 domain1 (Homo sapiens (Human), UniProt P23458)
Protocol: as §1

JAK1 domain2 = JAK1 domain2 (Homo sapiens (Human), UniProt P23458)
Protocol: as §1

KHS1 = KHS1 (Homo sapiens (Human), UniProt Q9Y4K4)
Protocol: as §1

KSR1, KSR2 = tested on: KSR1, KSR2
Protocol: as §1

LKB1 = LKB1 (Homo sapiens (Human), UniProt Q15831)
Protocol: as §1

MAP3K2 = MAP3K2 (Homo sapiens (Human), UniProt Q9Y2U5)
Sequence of MAP3K2 (Q9Y2U5 whole entry): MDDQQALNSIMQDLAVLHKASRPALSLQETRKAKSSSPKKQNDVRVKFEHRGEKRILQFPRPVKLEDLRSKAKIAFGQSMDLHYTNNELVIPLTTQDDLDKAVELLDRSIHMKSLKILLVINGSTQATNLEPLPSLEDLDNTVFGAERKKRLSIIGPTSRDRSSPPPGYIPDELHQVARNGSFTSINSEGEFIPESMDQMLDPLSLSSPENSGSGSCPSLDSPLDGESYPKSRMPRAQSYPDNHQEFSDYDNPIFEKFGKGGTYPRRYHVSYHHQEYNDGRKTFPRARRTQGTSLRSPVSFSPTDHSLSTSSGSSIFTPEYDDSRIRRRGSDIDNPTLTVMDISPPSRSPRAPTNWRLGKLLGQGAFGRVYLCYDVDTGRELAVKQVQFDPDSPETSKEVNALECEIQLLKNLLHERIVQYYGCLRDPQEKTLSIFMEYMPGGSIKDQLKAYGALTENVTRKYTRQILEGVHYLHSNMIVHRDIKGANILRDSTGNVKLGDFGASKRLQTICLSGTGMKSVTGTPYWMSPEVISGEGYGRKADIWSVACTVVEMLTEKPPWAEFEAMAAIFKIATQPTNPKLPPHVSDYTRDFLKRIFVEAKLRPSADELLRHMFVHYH
Protocol: as §1

MAP3K2, MAP3K3 = tested on: MAP3K2, MAP3K3
Protocol: as §1

MAP3K5 = MAP3K5 (Homo sapiens (Human), UniProt Q99683)
Protocol: as §1

MAPKAPK2, MAPKAPK3 = tested on: MAPKAPK2, MAPKAPK3
Protocol: as §1

MARK1, MARK2 = tested on: MARK1, MARK2
Protocol: as §1

MLK3 = MLK3 (Homo sapiens (Human), UniProt Q16584)
Protocol: as §1

NEK1 = NEK1 (Homo sapiens (Human), UniProt Q96PY6)
Sequence of NEK1 (Q96PY6 whole entry): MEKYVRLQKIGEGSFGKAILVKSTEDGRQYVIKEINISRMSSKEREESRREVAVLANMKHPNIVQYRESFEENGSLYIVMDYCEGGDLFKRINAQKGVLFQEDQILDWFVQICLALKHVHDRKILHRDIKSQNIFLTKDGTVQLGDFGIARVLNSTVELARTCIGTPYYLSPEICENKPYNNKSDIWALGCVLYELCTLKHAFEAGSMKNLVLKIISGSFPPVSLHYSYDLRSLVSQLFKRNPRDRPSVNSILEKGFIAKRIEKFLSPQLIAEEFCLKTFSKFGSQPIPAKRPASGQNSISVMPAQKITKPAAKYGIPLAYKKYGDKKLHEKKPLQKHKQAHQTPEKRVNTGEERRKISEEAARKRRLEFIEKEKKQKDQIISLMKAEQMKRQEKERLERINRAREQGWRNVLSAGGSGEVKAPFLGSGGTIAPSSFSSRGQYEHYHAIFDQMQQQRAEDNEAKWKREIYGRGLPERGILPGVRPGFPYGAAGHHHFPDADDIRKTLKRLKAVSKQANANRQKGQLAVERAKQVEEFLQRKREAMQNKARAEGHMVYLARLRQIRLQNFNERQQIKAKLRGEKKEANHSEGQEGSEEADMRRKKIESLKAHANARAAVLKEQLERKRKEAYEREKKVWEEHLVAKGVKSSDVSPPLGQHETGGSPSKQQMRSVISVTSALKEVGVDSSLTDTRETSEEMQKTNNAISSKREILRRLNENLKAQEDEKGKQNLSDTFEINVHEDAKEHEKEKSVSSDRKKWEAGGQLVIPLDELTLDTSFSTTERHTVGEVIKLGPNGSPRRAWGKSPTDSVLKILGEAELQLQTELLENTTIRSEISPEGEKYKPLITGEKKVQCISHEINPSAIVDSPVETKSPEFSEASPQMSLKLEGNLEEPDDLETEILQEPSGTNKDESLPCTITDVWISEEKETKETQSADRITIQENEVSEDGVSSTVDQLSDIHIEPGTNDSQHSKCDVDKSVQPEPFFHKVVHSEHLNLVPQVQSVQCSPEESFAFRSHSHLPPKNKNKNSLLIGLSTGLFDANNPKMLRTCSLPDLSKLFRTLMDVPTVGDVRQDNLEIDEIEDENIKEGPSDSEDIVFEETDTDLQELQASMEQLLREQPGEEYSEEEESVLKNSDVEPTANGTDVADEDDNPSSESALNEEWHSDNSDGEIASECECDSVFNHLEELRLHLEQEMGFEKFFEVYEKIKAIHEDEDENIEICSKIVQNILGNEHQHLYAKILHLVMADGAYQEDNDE
Protocol: as §1

NEK4 = NEK4 (Homo sapiens (Human), UniProt P51957)
Sequence of NEK4 (P51957 whole entry): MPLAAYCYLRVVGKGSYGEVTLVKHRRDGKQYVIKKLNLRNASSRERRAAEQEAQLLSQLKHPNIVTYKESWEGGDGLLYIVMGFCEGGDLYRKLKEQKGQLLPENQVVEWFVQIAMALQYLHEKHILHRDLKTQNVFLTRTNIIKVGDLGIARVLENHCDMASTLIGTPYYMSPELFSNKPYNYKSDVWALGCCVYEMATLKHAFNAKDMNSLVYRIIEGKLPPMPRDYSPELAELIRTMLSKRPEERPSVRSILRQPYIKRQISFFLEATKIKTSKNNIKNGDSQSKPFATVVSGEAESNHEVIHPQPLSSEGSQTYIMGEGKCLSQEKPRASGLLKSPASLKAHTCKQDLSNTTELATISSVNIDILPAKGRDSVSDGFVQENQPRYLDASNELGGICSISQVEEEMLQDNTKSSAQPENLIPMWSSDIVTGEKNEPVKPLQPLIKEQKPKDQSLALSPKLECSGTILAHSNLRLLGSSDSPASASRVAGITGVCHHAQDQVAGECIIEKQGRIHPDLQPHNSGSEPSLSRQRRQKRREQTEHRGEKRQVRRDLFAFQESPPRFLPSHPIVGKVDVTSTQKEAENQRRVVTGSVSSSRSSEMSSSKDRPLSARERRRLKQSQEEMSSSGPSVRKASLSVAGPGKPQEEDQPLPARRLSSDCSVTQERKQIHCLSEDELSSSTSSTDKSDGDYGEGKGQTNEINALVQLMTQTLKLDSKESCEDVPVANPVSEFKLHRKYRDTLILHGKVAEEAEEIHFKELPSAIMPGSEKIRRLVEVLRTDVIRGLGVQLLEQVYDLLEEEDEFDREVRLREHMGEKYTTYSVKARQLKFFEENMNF
Protocol: as §1

PI4KB = PI4KB (Homo sapiens (Human), UniProt Q9UBF8)
Protocol: as §1

PIP5K3 = PIP5K3 (Homo sapiens (Human), UniProt Q9Y2I7)
Protocol: as §1

PKD2 = PKD2 (Homo sapiens (Human), UniProt Q9BZL6)
Protocol: as §1

PKN1 = PKN1 (Homo sapiens (Human), UniProt Q16512)
Protocol: as §1

RSK2 domain2 = RSK2 domain2 (Homo sapiens (Human), UniProt P51812)
Protocol: as §1

SLK = SLK (Homo sapiens (Human), UniProt Q9H2G2)
Protocol: as §1

STLK5 = STLK5 (Homo sapiens (Human), UniProt Q7RTN6)
Sequence of STLK5 (Q7RTN6 whole entry): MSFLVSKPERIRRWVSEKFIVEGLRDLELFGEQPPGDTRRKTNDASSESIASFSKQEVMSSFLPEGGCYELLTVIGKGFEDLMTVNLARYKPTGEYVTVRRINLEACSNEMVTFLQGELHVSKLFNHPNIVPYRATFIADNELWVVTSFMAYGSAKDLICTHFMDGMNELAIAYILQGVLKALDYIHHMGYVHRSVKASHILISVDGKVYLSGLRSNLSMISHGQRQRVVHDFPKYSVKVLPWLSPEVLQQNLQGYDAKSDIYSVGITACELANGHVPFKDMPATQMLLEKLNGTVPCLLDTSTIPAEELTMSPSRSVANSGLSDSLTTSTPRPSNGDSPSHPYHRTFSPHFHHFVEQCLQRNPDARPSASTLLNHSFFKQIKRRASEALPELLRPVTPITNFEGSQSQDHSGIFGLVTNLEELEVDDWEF
Protocol: as §1

TAO2 = TAO2 (Homo sapiens (Human), UniProt Q9UL54)
Protocol: as §1

ULK1 = ULK1 (Homo sapiens (Human), UniProt O75385)
Protocol: as §1

[2] = tested on: ZC1/HGK, ZC2/TNIK, ZC3/MINK
Protocol: as §1

## Nc1ncc(-c2cccc3ncsc23)cc1-c1ccc2c(c1)CCNC2=O [Compound I-13, 6-(2-amino-5-(benzo[d]thiazol-7-yl)pyridin-3-yl)-3,4-dihydroisoquinolin-1(2H)-one]
ABL, ARG; 10 μM
  % inhibition (range): 50-75%
ABL, ARG
  inhibition (10 μM): 53.5%
BRAF; read-out: % inhibition (range)
  inhibition at 10 µM: 0%
BRAF; read-out: inhibition (10 μM)
  inhibition at 10 µM: 10.2%
CDK2; read-out: % inhibition (range)
  inhibition at 10 µM: 0%
CDK2; read-out: inhibition (10 μM)
  inhibition at 10 µM: 33.3%
CHK2; read-out: % inhibition (range)
  inhibition at 10 µM: 0%
CHK2; read-out: inhibition (10 μM)
  inhibition at 10 µM: 19.7%
CaMK1d; read-out: % inhibition (range)
  inhibition at 10 µM: 0%
CaMK1d; read-out: inhibition (10 μM)
  inhibition at 10 µM: 16.2%
[1]; 10 μM
  % inhibition (range): 0.0%
[1]
  inhibition (10 μM): −4.1%
CaMK2g; read-out: % inhibition (range)
  inhibition at 10 µM: 0%
CaMK2g; read-out: inhibition (10 μM)
  inhibition at 10 µM: -13.6%
IKKb; read-out: % inhibition (range)
  inhibition at 10 µM: 0%
IKKb; read-out: inhibition (10 μM)
  inhibition at 10 µM: -3.3%
ILK; read-out: % inhibition (range)
  inhibition at 10 µM: 0%
ILK; read-out: inhibition (10 μM)
  inhibition at 10 µM: 1.6%
IRAK4; read-out: % inhibition (range)
  inhibition at 10 µM: 0%
IRAK4; read-out: inhibition (10 μM)
  inhibition at 10 µM: -6.4%
IRE1; read-out: % inhibition (range)
  inhibition at 10 µM: 0%
IRE1; read-out: inhibition (10 μM)
  inhibition at 10 µM: -17%
JAK1 domain1; read-out: % inhibition (range)
  inhibition at 10 µM: 0%
JAK1 domain1; read-out: inhibition (10 μM)
  inhibition at 10 µM: -22.4%
JAK1 domain2; read-out: % inhibition (range)
  inhibition at 10 µM: 0%
JAK1 domain2; read-out: inhibition (10 μM)
  inhibition at 10 µM: -16%
KHS1; read-out: % inhibition (range)
  inhibition at 10 µM: 35 to 50%
KHS1; read-out: inhibition (10 μM)
  inhibition at 10 µM: 47.7%
KSR1, KSR2; 10 μM
  % inhibition (range): 0.0%
KSR1, KSR2
  inhibition (10 μM): −6.2%
LKB1; read-out: % inhibition (range)
  inhibition at 10 µM: 0%
LKB1; read-out: inhibition (10 μM)
  inhibition at 10 µM: 4.3%
MAP3K2; read-out: % inhibition (range)
  inhibition at 10 µM: 0%
MAP3K2; read-out: inhibition (10 μM)
  inhibition at 10 µM: -23.5%
MAP3K2, MAP3K3; 10 μM
  % inhibition (range): 0.0%
MAP3K2, MAP3K3
  inhibition (10 μM): 0.2%
MAP3K5; read-out: % inhibition (range)
  inhibition at 10 µM: 0%
MAP3K5; read-out: inhibition (10 μM)
  inhibition at 10 µM: 25.6%
MAPKAPK2, MAPKAPK3; 10 μM
  % inhibition (range): 0.0%
MAPKAPK2, MAPKAPK3
  inhibition (10 μM): 2.5%
MARK1, MARK2; 10 μM
  % inhibition (range): 0.0%
MARK1, MARK2
  inhibition (10 μM): 2.9%
MLK3; read-out: % inhibition (range)
  inhibition at 10 µM: 0%
MLK3; read-out: inhibition (10 μM)
  inhibition at 10 µM: -3.9%
NEK1; read-out: % inhibition (range)
  inhibition at 10 µM: 0%
NEK1; read-out: inhibition (10 μM)
  inhibition at 10 µM: 6.2%
NEK4; read-out: % inhibition (range)
  inhibition at 10 µM: 0%
NEK4; read-out: inhibition (10 μM)
  inhibition at 10 µM: 4.7%
PI4KB; read-out: % inhibition (range)
  inhibition at 10 µM: 0%
PI4KB; read-out: inhibition (10 μM)
  inhibition at 10 µM: 34.8%
PIP5K3; read-out: % inhibition (range)
  inhibition at 10 µM: > 90%
PIP5K3; read-out: inhibition (10 μM)
  inhibition at 10 µM: 92.5%
PKD2; read-out: % inhibition (range)
  inhibition at 10 µM: 50 to 75%
PKD2; read-out: inhibition (10 μM)
  inhibition at 10 µM: 52.1%
PKN1; read-out: % inhibition (range)
  inhibition at 10 µM: 0%
PKN1; read-out: inhibition (10 μM)
  inhibition at 10 µM: 19%
RSK2 domain2; read-out: % inhibition (range)
  inhibition at 10 µM: 0%
RSK2 domain2; read-out: inhibition (10 μM)
  inhibition at 10 µM: 3.8%
SLK; read-out: % inhibition (range)
  inhibition at 10 µM: 35 to 50%
SLK; read-out: inhibition (10 μM)
  inhibition at 10 µM: 49.2%
STLK5; read-out: % inhibition (range)
  inhibition at 10 µM: 0%
STLK5; read-out: inhibition (10 μM)
  inhibition at 10 µM: 9.9%
TAO2; read-out: % inhibition (range)
  inhibition at 10 µM: 0%
TAO2; read-out: inhibition (10 μM)
  inhibition at 10 µM: -19.7%
ULK1; read-out: % inhibition (range)
  inhibition at 10 µM: 0%
ULK1; read-out: inhibition (10 μM)
  inhibition at 10 µM: -23.4%
[2]; 10 μM
  % inhibition (range): >90%
[2]
  inhibition (10 μM): 97.0%
